# Legend:
# Type in all cases: cell-based
# KRAS protein [1] = molecular target: T1, KRAS protein (Homo sapiens, UniProt P01116, G12D); experiment: HIBIT degradation assay, AsPC-1 cells; settings: 24 h, HiBiT signal normalized to CTG signal; for Effect on KRAS Protein Degradation, AsPC-1, 3 μM: compound at 3 μM; for Effect on KRAS Protein Degradation, AsPC-1, 5 μM: compound at 5 μM
# T1 construct: engineered to express a Hobbit-tagged endogenous KRAS protein; endogenous in cells; host or cells: AsPC-1, endogenous KRAS locus engineered with a HiBiT tag
# Procedure: (§1) HEK293, MIA PaCa-2, AsPc-1, SW620, and H647 cells were engineered to express a […] endogenous KRAS protein. The HEK293 and MIA PaCa-2 cells were cultured in DMEM media supplemented with 10% fetal bovine serum, streptomycin, and penicillin. The AsPc-1, SW620, and H647 were cultured in RPMI media supplemented with 10% fetal bovine serum, streptomycin, and penicillin. The cells were seeded in white walled 96-well plates at 20,000 cells/well in 100 μL culture media in duplicate plates. After incubated at 37° C. under 5% CO2 overnight, the cells were treated with DMSO (control) or a compound, followed by the addition of 100 μL culture media to each well. After the cells were incubated for 24 h at 37° C. under 5% C02, 150 μL media were removed from each well and 50 μL NANOGLO-LGBIT lytic reagent were added to each well, and 50 μL CELLTITER-GLO (CTG) reagent was added to the duplicate plate. Following a 10-minute incubation with shaking, luminescence was measured using a Perkin Elmer ENVISION multimode plate reader. HiBiT signal was normalized to CTG signal. The results are summarized in Table 3, where “A” represents a percentage degradation value of no less than 50%; “B” represents a percentage degradation value of less than 50% and no less than 25%; “C” represents a percentage degradation value of less than 25% and no less than 10%; and “D” represents a percentage degradation value of less than 10%.
# KRAS protein [2] = molecular target: T2, KRAS protein (Homo sapiens, UniProt P01116); experiment: HIBIT degradation assay, HEK293 cells; settings: 24 h, HiBiT signal normalized to CTG signal; for Effect on KRAS Protein Degradation, HEK293, 3 μM: compound at 3 μM; for Effect on KRAS Protein Degradation, HEK293, 5 μM: compound at 5 μM
# T2 construct: engineered to express a Hobbit-tagged endogenous KRAS protein; endogenous in cells; host or cells: HEK293, endogenous KRAS locus engineered with a HiBiT tag
# Procedure: as §1
# KRAS protein [3] = molecular target: T3, KRAS protein (Homo sapiens, UniProt P01116, G13D); experiment: HIBIT degradation assay, H647 cells; settings: 24 h, HiBiT signal normalized to CTG signal; for Effect on KRAS Protein Degradation, H647, 3 μM: compound at 3 μM
# T3 construct: engineered to express a Hobbit-tagged endogenous KRAS protein; endogenous in cells; host or cells: H647, endogenous KRAS locus engineered with a HiBiT tag
# Procedure: as §1
# Molm-13 cells = experiment: Cell viability assay, inhibition of Molm-13 cells; settings: Homo sapiens; for inhibition at 1 µM: compound at 1 μM; for inhibition at 3 µM: compound at 3 μM
# Procedure: [Worded in the source for another cell line; this cell line is reported under the same test.] H358, H23, SW48, and AsPC-1 cells were cultured in RPMI 1640 media supplemented with 10% fetal bovine serum, streptomycin, and penicillin. Lovo and SW480 cells were cultured in DMEM media supplemented with 10% fetal bovine serum, streptomycin, and penicillin. The cell lines were plated in their respective medium supplemented with 2.5% fetal bovine serum, streptomycin, and penicillin. All cell lines were plated in white walled 96-well plates at 2,000 cells/well or 384-well plates at 500 cells/well, except Lovo, which were plated at 4,000 or 1,000 cells/well, respectively. The cells were incubated in DMSO (control) or a compound for 3 days at 37° C. under 5% C02. A CELLTITER-GLO® reagent (100 μL) was then added to each well. After a 10 min incubation with shaking, luminescence was measured using an ENVISION® multimode plate reader. IC50 values are summarized in Table 1 and percentages of inhibition are summarized in Table 2, where compound T1 is 2-(4-(2-methyl-3,5-diphenylpyrazolo[1,5-a]pyrimidin-7-yl)piperazin-1-yl)ethan-1-ol.
# T1 sequence (P01116 1-188 isoform P01116-2 G12D): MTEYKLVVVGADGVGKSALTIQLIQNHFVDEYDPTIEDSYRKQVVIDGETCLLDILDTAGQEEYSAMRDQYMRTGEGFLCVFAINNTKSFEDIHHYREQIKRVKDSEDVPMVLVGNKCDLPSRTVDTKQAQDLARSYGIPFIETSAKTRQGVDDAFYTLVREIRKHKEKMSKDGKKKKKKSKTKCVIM
# T3 sequence (P01116 1-185 isoform P01116-2 G13D limits assumed): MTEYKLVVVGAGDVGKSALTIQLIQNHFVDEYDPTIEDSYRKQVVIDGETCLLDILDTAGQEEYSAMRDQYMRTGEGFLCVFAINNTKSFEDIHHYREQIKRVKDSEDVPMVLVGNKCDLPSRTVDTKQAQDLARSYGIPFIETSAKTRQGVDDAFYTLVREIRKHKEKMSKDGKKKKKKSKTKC
# T2 sequence (P01116 1-188 isoform P01116-2): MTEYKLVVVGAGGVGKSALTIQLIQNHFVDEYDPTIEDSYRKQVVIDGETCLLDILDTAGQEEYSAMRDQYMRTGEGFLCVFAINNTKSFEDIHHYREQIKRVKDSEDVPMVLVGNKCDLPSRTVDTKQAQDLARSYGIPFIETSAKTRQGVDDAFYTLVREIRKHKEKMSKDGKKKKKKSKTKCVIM
SMILES,"Effect on KRAS Protein Degradation, AsPC-1, 3 μM (KRAS protein [1])","Effect on KRAS Protein Degradation, AsPC-1, 5 μM (KRAS protein [1])","Effect on KRAS Protein Degradation, HEK293, 3 μM (KRAS protein [2])","Effect on KRAS Protein Degradation, HEK293, 5 μM (KRAS protein [2])","Effect on KRAS Protein Degradation, H647, 3 μM (KRAS protein [3])",inhibition at 1 µM (Molm-13 cells) [%],inhibition at 3 µM (Molm-13 cells) [%],"Effect on KRAS Protein Degradation, H647, 5 μM (KRAS protein [3]; compound at 5 μM)"
"Cc1nn2c(N3CCN(CCO)CC3)cc(-c3ccccc3)nc2c1-c1cccc(CCCN2CCN(C(=O)CNc3cccc4c(N5CCC(=O)NC5=O)nn(C)c34)CC2)c1 [Compound D16, 1-(7-((2-(4-(3-(3-(7-(4-(2-Hydroxyethyl)piperazin-1-yl)-2-methyl-5-phenyl-pyrazolo[1,5-a]pyrimidin-3-yl)phenyl)propyl)piperazin-1-yl)-2-oxoethyl)amino)-1-methyl-1H-indazol-3-yl)dihydropyrimidine-2,4(1H,3H)-dione]",C (a percentage degradation value of less than 25% and no less than 10%),D (a percentage degradation value of less than 10%),C (a percentage degradation value of less than 25% and no less than 10%),C (a percentage degradation value of less than 25% and no less than 10%),,,,
"Cc1nn2c(N3CCN(CCO)CC3)cc(-c3ccccc3)nc2c1-c1cccc(CCCCCN2CCN(C(=O)CNc3cccc4c(N5CCC(=O)NC5=O)nn(C)c34)CC2)c1 [Compound D17, 1-(7-((2-(4-(5-(3-(7-(4-(2-hydroxyethyl)piperazin-1-yl)-2-methyl-5-phenyl-pyrazolo[1,5-a]pyrimidin-3-yl)phenyl)pentyl)piperazin-1-yl)-2-oxoethyl)amino)-1-methyl-1H-indazol-3-yl)dihydropyrimidine-2,4(1H,3H)-dione]",B (a percentage degradation value of less than 50% and no less than 25%),C (a percentage degradation value of less than 25% and no less than 10%),C (a percentage degradation value of less than 25% and no less than 10%),C (a percentage degradation value of less than 25% and no less than 10%),C (a percentage degradation value of less than 25% and no less than 10%),34,99,
"Cc1nn2c(N3CCN(CCO)CC3)cc(-c3ccccc3)nc2c1-c1cccc(CCCCCCCN2CCN(C(=O)CNc3cccc4c(N5CCC(=O)NC5=O)nn(C)c34)CC2)c1 [Compound D18, 1-(7-((2-(4-(7-(3-(7-(4-(2-hydroxyethyl)piperazin-1-yl)-2-methyl-5-phenyl-pyrazolo[1,5-a]pyrimidin-3-yl)phenyl)heptyl)piperazin-1-yl)-2-oxoethyl)amino)-1-methyl-1H-indazol-3-yl)dihydropyrimidine-2,4(1H,3H)-dione]",B (a percentage degradation value of less than 50% and no less than 25%),C (a percentage degradation value of less than 25% and no less than 10%),,,D (a percentage degradation value of less than 10%),14,95,C (a percentage degradation value of less than 25% and no less than 10%)
